Earlier results as cited in patent US20190160058A1, “METHODS OF TREATMENT WITH SELECTIVE CB2 RECEPTOR AGONISTS” (Arena Pharmaceuticals, Inc., priority 2016, published 2019).

Key:
RPE cells = conditions: cited from earlier work
[1] = tested on: LPS-induced bladder inflammation; conditions: in vivo; cited from earlier work
EAE mouse model = conditions: in vivo; cited from earlier work
[2] = tested on: bovine nasal cartilage explants; conditions: in vitro; cited from earlier work
mice = conditions: cited from earlier work
guinea pigs = conditions: cited from earlier work

CCCn1c(C)c(C(=O)c2cccc3ccccc23)c2ccccc21 [JWHO15]
protection from oxidative damage (RPE cells): provides comparable protection | LPS-induced bladder inflammation [1]: antagonize LPS-induced bladder inflammation

Cc1c(C(=O)c2cccc3ccccc23)c2cccc3c2n1[C@H](CN1CCOCC1)CO3 [WIN 55212-2]
leukocyte rolling and adhesion in the brain (EAE mouse model): significantly inhibits leukocyte rolling and adhesion in the brain | IL-1alpha-stimulated proteoglycan and collagen degradation [2]: significantly inhibit | number of capsaicin-induced coughs (mice): dose-dependent inhibition

CCCCC/C=C\C/C=C\C/C=C\C/C=C\CCCC(=O)NCCO [anandamide]
number of capsaicin-induced coughs (guinea pigs): dose-dependent inhibition
